Laboratory results: patent US20200377568A1, “Novel IL-4-/IL-13-derived peptide compounds for the treatment or prevention of neurodegenerative or neuroinflammatory diseases” (Universitätsmedizin der Johannes Gutenberg-Universität Mainz, priority 2018, published 2020)

What was measured:
[1] = tested on: hippocampal cell line HT22; assay: CellTiter-blue cell viability assay (ctb), hippocampal cell line; type: cell-based; conditions: HT22 cells, increasing concentrations, FIG. 2B
Protocol: Toxicity was checked by subjecting mouse embryonic fibroblasts (Mef) and the hippocampal cell line HT22 to a CellTiter-blue cell viability assay (ctb).
Mouse embryonic fibroblasts (Mef) (Sigma-Aldrich) and hippocampal HT22 (ThermoScientific) cells were cultured according to the manufacturer's protocols. Ctb assays were performed according to the manufacturer's protocols (Promega).

[2] = tested on: CD11b+ bone marrow-derived macrophages (BMDMs); assay: Differentiation of bone marrow-derived macrophages; type: cell-based, mouse; conditions: different concentrations, FIG. 4A
Protocol: (§1) A-B: Effects of incubation with IL-4 and different concentrations of Link4 and Link13 on the differentiation of A: CD11b^+ bone marrow-derived macrophages (BMDMs) into F80^+CD206^+ cells, and B: CD4^+ T cells into Gata3^+ cells. C-D: FACS results for different populations of T cells and CD11b^+MHCII^+ monocytes/macrophages/microglia of immune cells isolated from C: spleen and D: central nervous system (CNS) of EAE mice treated with PBS, IL-4 or Link4.
In order to investigate whether Link4 and Link13 are able to modulate immune cells, in vitro assays were performed on bone marrow-derived macrophages (BDMBs) and on naïve T cells.
Murine BMDMs were isolated from adult C57BL/6 mice. The tibia and femur bones were flushed with sterile PBS and the bone marrow was collected in washing medium. After filtering the cell suspension trough a 100 μm nylon mesh, the cells were centrifuged (5 min, 550 g, 4° C.) and resuspended in mouse medium (10% FCS, 1% P/S, 1% L-glutamine, 0.1% β-mercaptoethanol, 1% HEPES in RPMI buffer). For the in vitro generation of BMDMs cells were plated in 6 well-plates and exposed to 20 ng/ml Macrophage […] (M-CSF) for 4 days. For the activation of the cells, Dexametason (5×10^−7M), LPS (10 μg/ml) and IL-4 (10 ng/ml) were added to the culture for the following 3 days.

[3] = tested on: immune cells isolated from spleen; assay: FACS of immune cells from spleen of EAE mice after nasal treatment; type: in vivo, mouse; conditions: intranasal treatment of EAE mice
Protocol: as §1
(§2) Subsequently, the effects of IL-4 and Link4 on immune cells were analysed when applied intranasally, similarly as in FIG. 3B. Since nasally applied treatments can enter the periphery (lungs, blood stream) it was of utmost importance to check whether the substances affected the lymphocyte populations in the spleen. A reduction was found of CD8^+ cytotoxic T-cells for Link4, whereas all CD4^+ T helper cell types were unchanged. The CD11 b+MHCII+ population of monocytes/macrophages was also not changed.
CNS and spleens were removed from EAE mice treated with nasal IL-4, Link4 or PBS at d35 and immune cells were isolated as previously described (M. Paterka, J. O. Voss, J. Werr, E. Reuter, S. Franck, T. Leuenberger, J. Herz, H. Radbruch, T. Bopp, V. Siffrin, and F. Zipp, Dendritic cells tip the balance towards induction of regulatory T cells upon priming in experimental autoimmune encephalomyelitis. J Autoimmun 67, 108-114 (2017)). For in vitro stimulation of T cells, anti-CD3 (145-2C11) and anti-CD28 (37.51) were used. The following antibodies were used for flow cytometry with the BD FACSCanto II (BD Bioscience): anti-CD4 PEcγ7 (RM4-5), anti-CD8 FITC (53-6.7), anti-CD3APC (145-2c11), anti-CD11 b bio (M1/70), anti-MHCII PE (AF6-120.1), anti-CD11 b V450 (HL311B), anti-CD45 AF605 (30-F11), anti-GM-CSF PE (MP1-22E9), anti-IL17 APC (eBio17B7), anti-TNFα AF700 (MP6-XT22), anti-IFN-γV450 (XMG1.2), anti-GATA-3 PE (TWAZ), anti-FOXP3 PEcy7(FZK-16s), anti-IL-10 APC (JESS-16E3), anti-CD4 V450 (RM4-5). All antibodies were purchased from eBioscience or Biolegend.

[4] = tested on: immune cells isolated from central nervous system (CNS); assay: FACS of immune cells from CNS of EAE mice after nasal treatment; type: in vivo, mouse; conditions: CNS (brain and spinal cord), intranasal treatment of EAE mice
Protocol: as §1, §2
CNS and spleens were removed from EAE mice treated with nasal IL-4, Link4 or PBS at d35 and immune cells were isolated as previously described (M. Paterka, J. O. Voss, J. Werr, E. Reuter, S. Franck, T. Leuenberger, J. Herz, H. Radbruch, T. Bopp, V. Siffrin, and F. Zipp, Dendritic cells tip the balance towards induction of regulatory T cells upon priming in experimental autoimmune encephalomyelitis. J Autoimmun 67, 108-114 (2017)). […]

## RARSEIIGIGSKSIMQMDY (listed as Mus musculus) [Link4]
[1]
  toxic effects on hippocampal neurons (cell viability): no toxic effects
[2]
  differentiation of CD11b+ BMDMs into F80+CD206+ cells: did not occur
[3]
  CD4+ T helper cell types: unchanged
  CD8+ cytotoxic T-cells: reduction
  CD11b+MHCII+ population of monocytes/macrophages: not changed
[4]
  IL-10+ cells: significant rise
